# Laboratory results as given in publication PMC12059926, “Development and Biological Assessment of Thiazole-Based Pyridines for Targeted Therapy in Lung Cancer” (ACS Omega, 2025).
# Assays:
# caspase-3 in A549 cells = assay: Caspase-3 activation; assay type: cell-based, human; details: 24 h
# Excerpt: Caspases can take part in the cell death mechanism through both intrinsic and extrinsic pathways, with caspase-3 being the first enzyme activated in the apoptosis process.[24] Activation of the caspase-3 enzyme by the compounds, indicated as caspase-3 positive, and inhibition, indicated as caspase-3 negative, are presented in percentage terms in Table 5.
# A Spectrofluorometric Caspase-3 assay kit (BD Pharmingen, Franklin Lakes, NJ) was used for determining Caspase-3 activation by measuring the caspase-3 or DEVD-cleaving activity. Initially, A549 cells at a concentration of 1 × 10^6 cells/mL underwent a washing process using phosphate-buffered saline (PBS). Subsequently, they were suspended in a cold solution known as cell lysis buffer and kept on ice for a duration of 30 min. […] In each reaction, a mixture of […] of diluted Ac DEVD-AMC (a synthetic tetrapeptide fluorogenic substrate used to measure caspase-3 activity) and 0.2 mL of 1x HEPES buffer was added to a well. Then, […] of cell lysate was introduced into each well/reaction. The reaction mixtures were incubated at 37 °C for 1 h. The amount of AMC released from Ac-DEVD-AMC was measured by using a microplate reader (PerkinElmer/Victor/X3) with an excitation wavelength of 380 nm and an emission wavelength of 460 nm. Apoptotic cell lysates containing active caspase-3 produced significant emissions compared to controls. In addition, the AMC emission of nonapoptotic control cell lysates was taken as 100%, and the emission of other cell lysates was measured relative to the emission of control cells. All experiments were repeated in duplicate. Active compounds, which are the most cytotoxic compounds, were evaluated for caspase-3 activation using previously published procedures.[40],[44]
# (§1) The apoptotic results (Annexin V-FITC, Caspase 3, JC-1) were evaluated by flow cytometry using FACS Diva Version 6.1.1. software, and the apoptotic cells were determined as the percentage of cells.
# A549 cells [1] = assay: Mitochondrial membrane potential (JC-1) by flow cytometry; assay type: cell-based, human; details: for % Mitochondrial membrane depolarized cells / % Mitochondrial membrane polarized cells: IC50 dose, JC-1
# Excerpt: The mitochondrial membrane potential provides information about the state of electrons during ATP production through oxidative phosphorylation, which is essential for cellular viability. Mitochondrial dysfunction occurs when this electrical regulation is disturbed and can occur in various diseases and the process of apoptosis.[23] […] Compounds 2m, 2g, and 2c followed this, with depolarization levels exceeding 21%. The mitochondrial dysfunction in compound 2m can be considered a contributing factor to apoptosis.
# Cell staining with JC-1 was performed according to the manufacturer’s recommendations for the BD , Pharmingen Flow Cytometry Kit. […] Compounds were applied at IC50 doses of no more than 1 × 10^6/mL per well in 6-well plates. After treatment, each cell suspension was transferred to a 15 mL polystyrene centrifuge tube, the cells were centrifuged at 400g for 5 min, and the supernatant was removed. 0.5 mL of freshly prepared working solution was added to each pellet, and the solution was vortexed. The test cells were soaked in JC-1 working solution at 37 °C for 10–15 min, and the cells were washed twice. After centrifugation at 400g for 5 min, each cell pellet was suspended in 0.5 mL of 1X assay buffer and vortexed. The cells were then analyzed by flow cytometer.
# as §1
# [2] = tested on: A549 lung cancer cell line; assay: MTT cytotoxicity assay on A549 lung cancer cells; assay type: cell-based, human; details: for IC50: Homo sapiens; for SI: selectivity index: L929 versus A549
# Protocol: (§2) The synthesized final compounds (2a–2o) were initially evaluated for their cytotoxic effects to assess their anticancer activity against A549 lung cancer cells. The healthy cell line L929 (mouse fibroblast cell line) was also used to determine the selective antiproliferative properties of the compounds.
# (§3) The human lung cancer cell line A549 and mouse fibroblast cell line L929 were used to evaluate the cytotoxicity of the compounds. Cells propagated under the specified conditions were cultured in 96-well plates at 5 × 10^3 cells/well. […] At the end of the incubation period, cell viability was determined by measuring the absorbance of the purple color formed by the breakdown of the MTT dye at 540 nm. Half-maximal inhibitory concentrations (IC50) were determined based on the tested concentrations of the compounds. The tests were triplicated.[38] The MTT assay for cytotoxicity of compounds was determined according to previously published procedures.[39],[40]
# (§4) The concentration that inhibits 50% of the cell population was calculated as IC50 using GraphPad Prism 9.0 statistical software program, and standard deviation values were analyzed. Data are expressed as mean ± SD. Comparisons were made using one-way ANOVA for continuous variables with normal distribution, and Tukey’s test was used for post hoc analysis of group differences. p < 0.05 was considered statistically significant.
# (§5) The cell viability value of the control group was considered 100%, and all viability values were calculated using the formula below. The experiment was performed in 3 replicates. [drawing 2]
# [3] = tested on: L929 (mouse fibroblast cell line); assay: MTT cytotoxicity assay on L929 healthy cells; assay type: cell-based; details: mean ± SD
# Protocol: as §2, §3, §4, §5
# A549 cells [4] = assay: Annexin V-FITC/propidium iodide apoptosis detection by flow cytometry; assay type: cell-based, human; details: IC50 dose, 24 h
# Protocol: To determine whether the antiproliferative effects of the compounds on the A549 cell line proceed through the apoptotic or necrotic pathway, the assay was performed with Annexin V-FITC/propidium iodide dyes in a flow cytometry device. […] At least 10,000 cells were analyzed, and quadrant analysis was performed. The results are presented as early apoptotic cells, late apoptotic cells, viable cells, and necrotic cells in Table 3, and as a diagram in Figure 1. In control cells, the number of viable cells was 92.04%, necrotic cells were 1.16%, early apoptotic cells were 3.43%, and late apoptotic cells were 3.28%. […] Among the compounds, 2m was the most apoptosis-inducing compound, with 14.99% early apoptotic and 10.63% late apoptotic cell percentages. […] This compound was followed by compound 2c with a 13.79% early apoptotic cells and 4.03% late apoptotic cells. Among the compounds, compound 2o induced early apoptosis the least (1.87%) and necrosis the most (3.10%). […] Nonapoptotic cell death methods, such as necroptosis and pyroptosis, can be considered for the aforementioned compounds.
# The compounds were treated with A549 cells at IC50 doses, and early and late apoptosis, necrosis, and viable cell ratios were determined as percentages. Cells were seeded at 37 °C in humidified air containing 5% CO2 with 10^5 cells/plate in each well. A549 cells were collected, washed twice with ice-cold PBS, and resuspended in 100 μL of binding buffer. Five μL (5 μg/mL) of Annexin V-FITC and PI were added to the cells and incubated for 15 min in the dark at room temperature (20–25 °C). Then, 400 μL of binding buffer was added to the mixture samples and analyzed on a flow cytometer. Quadrant analyses were also presented.[41] Compounds 2a, 2b, 2c, 2j, 2m, and 2o, with a satisfactory cytotoxic profile, were examined via flow cytometry to assess the apoptosis/necrosis cell ratio using previously published procedures.[42]
# as §1
# MMP-9 enzyme = target: T1, MMP-9 enzyme (Homo sapiens, UniProt P14780); assay: MMP-9 enzyme inhibition, colorimetric kit; assay type: biochemical; details: mean ± SD; for inhibition at 100 µM: compounds at 100 μM
# T1 construct: purchased Enzo Life Sciences Inc. (Farmingdale, NY, USA)
# T1 sequence (P14780 107-444 limits assumed): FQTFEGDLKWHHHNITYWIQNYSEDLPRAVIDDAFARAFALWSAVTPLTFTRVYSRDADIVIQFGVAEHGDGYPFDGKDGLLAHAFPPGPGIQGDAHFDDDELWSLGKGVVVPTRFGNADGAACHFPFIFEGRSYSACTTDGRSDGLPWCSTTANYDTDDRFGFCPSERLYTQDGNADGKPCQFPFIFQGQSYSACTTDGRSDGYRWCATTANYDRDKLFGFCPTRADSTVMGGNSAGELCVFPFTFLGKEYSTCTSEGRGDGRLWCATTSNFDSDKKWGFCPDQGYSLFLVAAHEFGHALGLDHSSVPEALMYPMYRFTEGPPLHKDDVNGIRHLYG
# Protocol: Compounds (2a–2o) were tested to determine their MMP-9 enzyme inhibition potential. The compounds were tested at a concentration of 100 μM, and the standard molecule NNGH at a concentration of 1.3 μM.
# MMP-9 inhibition was assessed using a colorimetric kit from Enzo Life Sciences Inc. (Farmingdale, NY, USA), following procedures similar to those described in previous studies.[25],[26] A thiopeptide was used as a chromogenic substrate (Ac-PLG-[2-mercapto-4-methyl-pentanoyl]-LG-OC2H5). 2-Nitro-5-thiobenzoic acid, formed by the reaction of the sulfhydryl group produced as a result of hydrolysis of the thioester by the MMP-9 enzyme and then reaction with DTNB [5,5′-dithiobis(2-nitrobenzoic acid), Ellman’s reagent], gives absorbance at 412 nm in a microplate reader (BioTek, PowerWave, Gen5 software, Winooski, VT, USA). Based on these absorptions, MMP-9 inhibition concentrations were determined. The assays were performed in triplicate. NNGH (N-isobutyl-N-(4-methoxyphenylsulfonyl)glycyl hydroxamic acid) was used as a control inhibitor. Data were shown as mean ± SD. The inhibitor % remaining activity of MMPs was calculated using the following equation:
# Inhibitor% activity remaining = (V inhibitor/V control) × 100.
# The inhibition (percent) of MMPs was calculated using the following equation: [drawing 1]
smiles,measurement,setting,value
"Clc1ccc(-c2csc(NN=Cc3ccncc3)n2)cc1Cl [Compound 2o, 4-(3,4-Dichlorophenyl)-2-(2-(pyridin-4-ylmethylene)hydrazinyl)thiazole]",% Caspase-3 negative cells,caspase-3 in A549 cells,25.00%
same,% Caspase-3 positive cells,caspase-3 in A549 cells,0.00%
same,% Mitochondrial membrane depolarized cells,A549 cells [1],12.85%
same,% Mitochondrial membrane polarized cells,A549 cells [1],87.73%
same,IC50,"[2]; A549 cells, MTT, mean ± SD",5.04 ± 0.31 µg/mL
same,IC50,[3],51.9 ± 0.58 µg/mL
same,Q1-LL viable cells,A549 cells [4],87.11%
same,Q1-LR early apoptotic cells,A549 cells [4],1.87%
same,Q1-UL necrotic cells,A549 cells [4],3.10%
same,Q1-UR late apoptotic cells,A549 cells [4],7.92%
"C(=NNc1nc(-c2ccc(-c3ccccc3)cc2)cs1)c1cccnc1 [Compound 2h, 4-([1,1’-Biphenyl]-4-yl)-2-(2-(pyridin-3-ylmethylene)hydrazinyl)thiazole]",IC50,"[2]; A549 cells, MTT, mean ± SD",9.93 ± 0.42 µg/mL
same,SI: selectivity index,[2],1.53
same,IC50,[3],15.2 ± 0.53 µg/mL
"CS(=O)(=O)c1ccc(-c2csc(NN=Cc3ccncc3)n2)cc1 [Compound 2l, 4-(4-(Methylsulfonyl)phenyl)-2-(2-(pyridin-4-ylmethylene)hydrazinyl)thiazole]",IC50,"[2]; A549 cells, MTT, mean ± SD",4.7 ± 0.3 µg/mL
same,SI: selectivity index,[2],1.43
same,IC50,[3],6.74 ± 0.41 µg/mL
"Oc1ccc(-c2csc(NN=Cc3cccnc3)n2)cc1O [Compound 2i, 4-(2-(2-(Pyridin-3-ylmethylene)hydrazinyl)thiazol-4-yl)benzene-1,2-diol]",inhibition at 100 µM,MMP-9 enzyme,40.6 ± 3.01%
same,IC50,"[2]; A549 cells, MTT, mean ± SD",7.2 ± 0.95 µg/mL
same,IC50,[3],> 250 µg/mL
"COc1ccc(S(=O)(=O)N(CC(=O)NO)CC(C)C)cc1 [NNGH, N-isobutyl-N-(4-methoxyphenylsulfonyl)glycyl hydroxamic acid, reference compound]",MMP-9 inhibition %,MMP-9 enzyme; standard at 1.3 μM,93.56 ± 1.78%
"Oc1ccc(-c2csc(NN=Cc3ccncc3)n2)cc1O [Compound 2n, 4-(2-(2-(Pyridin-4-ylmethylene)hydrazinyl)thiazol-4-yl)benzene-1,2-diol]",inhibition at 100 µM,MMP-9 enzyme,19 ± 3.63%
same,IC50,"[2]; A549 cells, MTT, mean ± SD",4.23 ± 0.54 µg/mL
same,SI: selectivity index,[2],1.06
same,IC50,[3],4.48 ± 0.68 µg/mL
"N.N.[Cl][Pt][Cl] [Cisplatin, reference compound]",% Caspase-3 negative cells,caspase-3 in A549 cells,75.56%
same,% Caspase-3 positive cells,caspase-3 in A549 cells,11.65%
same,% Mitochondrial membrane depolarized cells,A549 cells [1],36.27%
same,% Mitochondrial membrane polarized cells,A549 cells [1],62.15%
same,IC50 A549,"[2]; A549 cells, MTT, mean ± SD",12.65 ± 0.38 µg/mL
same,Q1-UL necrotic cells,A549 cells [4],6.56%
same,Q1-UR late apoptotic cells,A549 cells [4],31.29%
same,total apoptosis (early + late apoptotic cells),A549 cells [4],62.37%
"Oc1ccc(-c2csc(NN=Cc3ccccn3)n2)cc1O [Compound 2d, 4-(2-(2-(Pyridin-2-ylmethylene)hydrazinyl)thiazol-4-yl)benzene-1,2-diol]",IC50,"[2]; A549 cells, MTT, mean ± SD",4.7 ± 0.6 µg/mL
same,SI: selectivity index,[2],1.96
same,IC50,[3],9.2 ± 0.36 µg/mL
"CS(=O)(=O)c1ccc(-c2csc(NN=Cc3ccccn3)n2)cc1 [Compound 2b, 4-(4-(Methylsulfonyl)phenyl)-2-(2-(pyridin-2-ylmethylene)hydrazinyl)thiazole]",% Caspase-3 negative cells,caspase-3 in A549 cells,84.70%
same,% Caspase-3 positive cells,caspase-3 in A549 cells,7.73%
same,% Mitochondrial membrane depolarized cells,A549 cells [1],47.96%
same,% Mitochondrial membrane polarized cells,A549 cells [1],54.51%
same,mitochondrial membrane depolarization relative to cisplatin,A549 cells [1]; versus cisplatin,approximately 1.5 times
same,IC50,"[2]; A549 cells, MTT, mean ± SD",9.93 ± 0.37 µg/mL
same,IC50,[3],31.2 ± 0.56 µg/mL
same,Q1-LL viable cells,A549 cells [4],90.44%
same,Q1-LR early apoptotic cells,A549 cells [4],6.95%
same,Q1-UL necrotic cells,A549 cells [4],0.33%
same,Q1-UR late apoptotic cells,A549 cells [4],2.28%
same,"apoptosis induction, result in words",A549 cells [4],did not significantly induce apoptosis
"Clc1ccc(-c2csc(NN=Cc3cccnc3)n2)cc1Cl [Compound 2j, 4-(3,4-Dichlorophenyl)-2-(2-(pyridin-3-ylmethylene)hydrazinyl)thiazole]",% Caspase-3 negative cells,caspase-3 in A549 cells,97.47%
same,% Caspase-3 positive cells,caspase-3 in A549 cells,0.96%
same,% Mitochondrial membrane depolarized cells,A549 cells [1],15.40%
same,% Mitochondrial membrane polarized cells,A549 cells [1],84.75%
same,IC50,"[2]; A549 cells, MTT, mean ± SD",6.58 ± 0.35 µg/mL
same,SI: selectivity index,[2],1.48
same,IC50,[3],9.76 ± 0.45 µg/mL
same,Q1-LL viable cells,A549 cells [4],91.05%
same,Q1-LR early apoptotic cells,A549 cells [4],3.96%
same,Q1-UL necrotic cells,A549 cells [4],1.68%
same,Q1-UR late apoptotic cells,A549 cells [4],3.31%
same,"apoptosis induction, result in words",A549 cells [4],did not significantly induce apoptosis
